How the values were obtained:
[1] = Stability of saturated aqueous solutions of (R,R)-DACH-2 at pH 2, composition by HPLC; assay type: physicochemical
Protocol: The resultant suspension was stirred for 30 min and the pH adjusted to 2 with 0.1M nitric acid. The solution was filtered through a 0.45 micron Whatman polypropylene filter to afford a clear solution. Samples of the solution were stored at 25° C. and 5° C. At the time intervals shown in Tables 2 and 3 the solution composition was determined by HPLC.

[2] = Long-term stability study of the recrystallized (R,R)-DACH-2 sample; assay type: physicochemical; conditions: not exceeding 25° C., humidity 60±5%
Protocol: A long-term stability study of the recrystallized sample was conducted.

[3] = aqueous solution, pH 2, 5° C., 0.1 h
[4] = aqueous solution, pH 2, 5° C., 2 h
[5] = aqueous solution, pH 2, 5° C., 4 h
[6] = aqueous solution, pH 2, 5° C., 8 h
[7] = aqueous solution, pH 2, 5° C., 16 h
[8] = aqueous solution, pH 2, 5° C., 24 h
[9] = aqueous solution, pH 2, 5° C., 48 h
[10] = aqueous solution, pH 2, 25° C., 0.1 h
[11] = aqueous solution, pH 2, 25° C., 2 h
[12] = aqueous solution, pH 2, 25° C., 4 h
[13] = aqueous solution, pH 2, 25° C., 8 h
[14] = aqueous solution, pH 2, 25° C., 16 h
[15] = aqueous solution, pH 2, 25° C., 24 h
[16] = aqueous solution, pH 2, 25° C., 48 h
[17] = after 14 months, initial 0.01% (wt/wt)

Question: For `NC1CCCCC1N.O=P([O-])([O-])OP(=O)(O)O.[Pt+2]` [(R,R)-DACH-2, cyclohexanediamine (pyrophosphato)platinum (II)], which “(R,R)-DACH-2” value [1, 3] is on record?
Answer: 12.8 HPLC Area %

Question: And the “(R,R)-DACH-2 concentration” value [1, 3]?
Answer: 0.1 mg/mL

Question: What about the “(R,R)-DACH-2 dimer” value [1, 3] of the same compound?
Answer: 16.8 HPLC Area %

Question: And the “(R,R-DACH-2 water adduct)” value [1, 3]?
Answer: 2.5 HPLC Area %

Question: And the Pt-DACH-diaquo [1, 3]?
Answer: 68.3 HPLC Area %

Question: What about the “(R,R)-DACH-2” value [1, 4] of the same compound?
Answer: 11.7 HPLC Area %

Question: And the “(R,R)-DACH-2 concentration” value [1, 4]?
Answer: 2 mg/mL

Question: What about the “(R,R)-DACH-2 dimer” value [1, 4] of the same compound?
Answer: 24.2 HPLC Area %

Question: What about the “(R,R-DACH-2 water adduct)” value [1, 4] of the same compound?
Answer: 2.22 HPLC Area %

Question: What about the Pt-DACH-diaquo [1, 4] of the same compound?
Answer: 60.9 HPLC Area %

Question: What about the “(R,R)-DACH-2” value [1, 5] of the same compound?
Answer: 10.6 HPLC Area %

Question: And the “(R,R)-DACH-2 concentration” value [1, 5]?
Answer: 4 mg/mL

Question: And the “(R,R)-DACH-2 dimer” value [1, 5]?
Answer: 29.2 HPLC Area %

Question: And the “(R,R-DACH-2 water adduct)” value [1, 5]?
Answer: 2.02 HPLC Area %

Question: And the Pt-DACH-diaquo [1, 5]?
Answer: 57.2 HPLC Area %

Question: What about the “(R,R)-DACH-2” value [1, 6] of the same compound?
Answer: 9.6 HPLC Area %

Question: And the “(R,R)-DACH-2 concentration” value [1, 6]?
Answer: 8 mg/mL

Question: And the “(R,R)-DACH-2 dimer” value [1, 6]?
Answer: 33.5 HPLC Area %

Question: And the “(R,R-DACH-2 water adduct)” value [1, 6]?
Answer: 1.81 HPLC Area %

Question: And the Pt-DACH-diaquo [1, 6]?
Answer: 53.6 HPLC Area %

Question: And the “(R,R)-DACH-2” value [1, 7]?
Answer: 9.3 HPLC Area %

Question: What about the “(R,R)-DACH-2 concentration” value [1, 7] of the same compound?
Answer: 16 mg/mL

Question: And the “(R,R)-DACH-2 dimer” value [1, 7]?
Answer: 35.1 HPLC Area %

Question: And the “(R,R-DACH-2 water adduct)” value [1, 7]?
Answer: 1.63 HPLC Area %

Question: What about the Pt-DACH-diaquo [1, 7] of the same compound?
Answer: 52.5 HPLC Area %

Question: What about the “(R,R)-DACH-2” value [1, 8] of the same compound?
Answer: 9.4 HPLC Area %

Question: And the “(R,R)-DACH-2 concentration” value [1, 8]?
Answer: 24 mg/mL

Question: What about the “(R,R)-DACH-2 dimer” value [1, 8] of the same compound?
Answer: 36.2 HPLC Area %

Question: What about the “(R,R-DACH-2 water adduct)” value [1, 8] of the same compound?
Answer: 1.43 HPLC Area %

Question: What about the Pt-DACH-diaquo [1, 8] of the same compound?
Answer: 51.5 HPLC Area %

Question: What about the “(R,R)-DACH-2” value [1, 9] of the same compound?
Answer: 9.3 HPLC Area %

Question: What about the “(R,R)-DACH-2 concentration” value [1, 9] of the same compound?
Answer: 48 mg/mL

Question: What about the “(R,R)-DACH-2 dimer” value [1, 9] of the same compound?
Answer: 34.7 HPLC Area %

Question: And the “(R,R-DACH-2 water adduct)” value [1, 9]?
Answer: 1.27 HPLC Area %

Question: What about the Pt-DACH-diaquo [1, 9] of the same compound?
Answer: 53.8 HPLC Area %

Question: What about the “(R,R)-DACH-2” value [1, 10] of the same compound?
Answer: 67.1 HPLC Area %

Question: And the “(R,R)-DACH-2 concentration” value [1, 10]?
Answer: 2.38 mg/mL

Question: What about the “(R,R)-DACH-2 dimer” value [1, 10] of the same compound?
Answer: 2.9 HPLC Area %

Question: What about the “(R,R-DACH-2 water adduct)” value [1, 10] of the same compound?
Answer: 13.3 HPLC Area %

Question: And the Pt-DACH-diaquo [1, 10]?
Answer: 16.7 HPLC Area %

Question: And the “(R,R)-DACH-2” value [1, 11]?
Answer: 50.6 HPLC Area %

Question: What about the “(R,R)-DACH-2 concentration” value [1, 11] of the same compound?
Answer: 1.75 mg/mL

Question: And the “(R,R)-DACH-2 dimer” value [1, 11]?
Answer: 14.3 HPLC Area %

Question: And the “(R,R-DACH-2 water adduct)” value [1, 11]?
Answer: 9.3 HPLC Area %

Question: What about the Pt-DACH-diaquo [1, 11] of the same compound?
Answer: 25.8 HPLC Area %

Question: And the “(R,R)-DACH-2” value [1, 12]?
Answer: 48.7 HPLC Area %

Question: What about the “(R,R)-DACH-2 concentration” value [1, 12] of the same compound?
Answer: 1.59 mg/mL

Question: And the “(R,R)-DACH-2 dimer” value [1, 12]?
Answer: 17.4 HPLC Area %

Question: And the “(R,R-DACH-2 water adduct)” value [1, 12]?
Answer: 9.2 HPLC Area %

Question: What about the Pt-DACH-diaquo [1, 12] of the same compound?
Answer: 24.8 HPLC Area %

Question: And the “(R,R)-DACH-2” value [1, 13]?
Answer: 51.6 HPLC Area %

Question: What about the “(R,R)-DACH-2 concentration” value [1, 13] of the same compound?
Answer: 1.41 mg/mL

Question: What about the “(R,R)-DACH-2 dimer” value [1, 13] of the same compound?
Answer: 13.4 HPLC Area %

Question: What about the “(R,R-DACH-2 water adduct)” value [1, 13] of the same compound?
Answer: 9.5 HPLC Area %

Question: And the Pt-DACH-diaquo [1, 13]?
Answer: 25.5 HPLC Area %

Question: And the “(R,R)-DACH-2” value [1, 14]?
Answer: 56.5 HPLC Area %

Question: What about the “(R,R)-DACH-2 concentration” value [1, 14] of the same compound?
Answer: 1.04 mg/mL

Question: What about the “(R,R)-DACH-2 dimer” value [1, 14] of the same compound?
Answer: 8.1 HPLC Area %

Question: And the “(R,R-DACH-2 water adduct)” value [1, 14]?
Answer: 9.8 HPLC Area %

Question: What about the Pt-DACH-diaquo [1, 14] of the same compound?
Answer: 25.6 HPLC Area %

Question: And the “(R,R)-DACH-2” value [1, 15]?
Answer: 57.6 HPLC Area %

Question: And the “(R,R)-DACH-2 concentration” value [1, 15]?
Answer: 0.88 mg/mL

Question: And the “(R,R)-DACH-2 dimer” value [1, 15]?
Answer: 7 HPLC Area %

Question: What about the “(R,R-DACH-2 water adduct)” value [1, 15] of the same compound?
Answer: 10.1 HPLC Area %

Question: What about the Pt-DACH-diaquo [1, 15] of the same compound?
Answer: 25.3 HPLC Area %

Question: What about the “(R,R)-DACH-2” value [1, 16] of the same compound?
Answer: 59.5 HPLC Area %

Question: What about the “(R,R)-DACH-2 concentration” value [1, 16] of the same compound?
Answer: 0.62 mg/mL

Question: What about the “(R,R)-DACH-2 dimer” value [1, 16] of the same compound?
Answer: 5.5 HPLC Area %

Question: What about the “(R,R-DACH-2 water adduct)” value [1, 16] of the same compound?
Answer: 9.3 HPLC Area %

Question: What about the Pt-DACH-diaquo [1, 16] of the same compound?
Answer: 25.9 HPLC Area %

Question: And the “Degradation rate, conclusion in words” value ([1]; aqueous solution, pH 2, as temperature is reduced (25° C. to 5° C.))?
Answer: significantly reduced

Question: And the “Stability in aqueous solution, conclusion in words” value ([1]; saturated aqueous solution, pH 2)?
Answer: readily suffers hydrolytic degradation

Question: And the “(R,R)-DACH-2 purity on re-testing” value ([2]; after 14 months, HDPE bottle, initial 99.4% w/w)?
Answer: 98.4 % (wt/wt)

Question: What about the “chloride content on re-testing” value [2, 17] of the same compound?
Answer: 0.01% (wt/wt)

Question: What about the “nitrate content on re-testing” value [2, 17] of the same compound?
Answer: 0.01% (wt/wt)

Question: What about the “pyrophosphate content on re-testing” value ([2]; after 14 months, initial 0.17% (wt/wt)) of the same compound?
Answer: 0.17% (wt/wt)

Question: What about the “DACH-Pt—Cl2 content on re-testing” value ([2]; after 14 months, initial not detected) of the same compound?
Answer: not detected

Question: And the “Long-term stability, conclusion in words” value ([2]; purified solid, 14 months)?
Answer: stable

From patent US8859796B1, “Synthetic and purification methods for phosphaplatin compounds and uses thereof” (Phosplatin Therapeutics LLC, priority 2012, dated 2014)
